# Source: patent publication US12161722B2, “Bifunctional heterocyclic compound having BTK degradation function via ubiquitin proteasome pathway, and use thereof” (KOREA RESEARCH INSTITUTE OF CHEMICAL TECHNOLOGY, priority 2021, dated 2024)
# Target: T1, WT BTK protein (Homo sapiens, UniProt Q06187)
# T1 construct: measured for intracellular BTK protein levels by Western blotting; endogenous in cells; host or cells: TMD-8 or RAMOS cells
# Experiment: BTK protein degradation assay (Western blotting), WT BTK
# Type: cell-based
# Details: concentration range accounting for 50% degradation of WT BTK protein, TMD-8 or RAMOS cells, 24 hours
# Procedure: TMD-8, RAMOS, or 293T BTK MUT (C481S) cells were treated with the synthesized compounds and measured for intracellular BTK protein levels by Western blotting. The protocol of the experiment using TMD-8 cells is as follows.
# TMD-8 cells were resuspended in an RPMI1640 medium (Hyclone, SH30027.01, 10% FBS (Hyclone, SV30207.02), 1% penicillin-streptomycin (Welgene, LS 202-02) and the cell suspension was seeded at a density of 1×10^6 cells/mL in an amount of 1 mL per well into 12-well plates.
# The 12-well plates were treated as follows. A 10 mM stock was 1/10 diluted in series with DMSO ([…]) to form final concentrations of 10, 1, 0.1, 0.01, 0.001, and 0.0001 mM. The compounds with such concentrations were applied to cells, followed by harvesting the cells 24 hours later. For a negative control, a 1/10 dilution of DMSO in the medium (3 mL DMSO+27 mL medium) was used.
# The 1-mL cell culture in each well was passed many times through a pipette and then transferred into a 1.5-mL microtube before centrifugation (500 g, 5 min, 4° C.). The supernatant was discarded and the cell pellet was washed with PBS. After centrifugation (500 g, 5 min, 4° C.) again, the supernatant was discarded and the cell pellet was taken.
# A lysis buffer was prepared as follows. RIPA buffer (Biosesang, RC2038-050-00)+0.5 mM PMSF (SIGMA, P7626)+1×Protease/Phosphatase Inhibitor (Cell signaling, 5872S) was added in an amount […] per well and left for 30 minutes on ice (vortexing at 0 and 30 minutes) before sonication (5 cycles of pulse for 10 seconds and rest for 30 seconds, 70% amplification). The supernatant obtained by centrifugation (15000 g, 15 min, 4° C.) was transferred into a new microtube. Cells in each well of 96-well plates were 1/2 diluted with the RIPA buffer and incubated at 37° C. for 30 minutes with […] of a 50:1 mixture of BCA reagents A and B in BCA Protein Assay Kit (iNtRON, 21071). After being cooled for 10 minutes, the 96-well plates were measured for absorbance at 562 nm on the BioTek, SYNERGY H1 microplate reader. Samples were prepared by protein quantification based on the absorbance measurements and then boiled at 70° C. for 10 minutes. The sample buffer used in the case was prepared by mixing a NuPAGE or a Bolt 4× sample buffer (Invitrogen) and its 10× sample reducing agent depending on the gel to be used, and protein dilution was made in a RIPI buffer.
# The samples were loaded in the same amount into a NuPAGE or Bolt Bis-tris 4-12% gradient gel and allowed to run therein (200 V, 35 minutes). The separated proteins were transferred onto a […] NC membrane, using Trans-blot Turbo (BIO-RAD) (1.3 A constant, 25V limit, 15 minutes). The membrane was blocked at room temperature for 1 hour with skim milk or Intercept Blocking Buffer (LI-COR, 927-60001):0.1% TBST=1:1. The membrane was incubated with Anti BTK Rabbit (1:1,000 in 5% skim milk/0.2% TBST, size: 77 kDa, Cell signaling Technology) at 4° C. overnight O/N or at room temperature for 2 hours and with Anti GAPDH Rabbit (1:10,000 in 5% BSA/0.2% TBST, size: 36 kDa, GENETEX) and Anti β-actin mouse (1:10,000 in 5% BSA/0.2% TBST, RT, size: 43 kDa, GENETEX) at room temperature for 1 or 3 hours. Then, the membrane was washed three times with 0.5% TBST for 5 minutes each time before incubation with the second antibody Anti-Rabbit IgG (1:5,000 in 5% Skim milk/TBST, CST), IRDye® 800CW Goat anti-Rabbit IgG Secondary Antibody (1:10,000 in 5% skim/TBST, RT 45 min), or IRDye® 680RD Goat anti-Mouse IgG Secondary Antibody (1:10,000 in 5% skim/TBST, RT 45 min) for 45 minutes at room temperature in a rocker. The membrane was washed five times with 0.5% TBST for 5 minutes in each time, followed by detection with LI-COR, Odyssey. In this regard, the detection proceeded, as it was, for house-keeping genes while using SuperSignal West Pico PLUS Chemiluminescent Substrate or SuperSignal West femto Maximum Sensitivity Substrate for BTK detection. […]
# T1 sequence (Q06187 whole entry): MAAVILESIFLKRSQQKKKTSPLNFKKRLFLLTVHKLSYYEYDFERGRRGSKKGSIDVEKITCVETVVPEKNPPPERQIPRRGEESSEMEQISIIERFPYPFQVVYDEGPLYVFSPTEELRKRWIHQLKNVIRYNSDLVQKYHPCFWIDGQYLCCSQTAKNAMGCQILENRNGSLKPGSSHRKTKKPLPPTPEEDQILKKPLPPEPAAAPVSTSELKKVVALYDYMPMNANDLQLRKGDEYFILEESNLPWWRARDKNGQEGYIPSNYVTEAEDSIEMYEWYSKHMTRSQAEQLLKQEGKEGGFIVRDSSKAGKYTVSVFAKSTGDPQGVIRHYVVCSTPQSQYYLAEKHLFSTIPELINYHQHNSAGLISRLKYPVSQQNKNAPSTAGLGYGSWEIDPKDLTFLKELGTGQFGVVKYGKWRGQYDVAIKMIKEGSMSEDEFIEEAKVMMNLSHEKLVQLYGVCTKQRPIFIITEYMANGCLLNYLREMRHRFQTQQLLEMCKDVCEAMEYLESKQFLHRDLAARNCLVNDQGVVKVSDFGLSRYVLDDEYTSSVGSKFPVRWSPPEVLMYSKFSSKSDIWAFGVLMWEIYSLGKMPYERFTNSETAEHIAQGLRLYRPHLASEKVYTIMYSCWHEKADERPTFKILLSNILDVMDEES
row,Compound,DC50
1,"Cc1cccc(C)c1Nc1nn(C)c2nc(Nc3ccc4c(c3)CN(CC3CCN(CC5CN(c6ccc7c(c6)C(=O)N(C6CCC(=O)NC6=O)C7=O)C5)CC3)CC4)ncc12 (centres unmarked) [Compound 50, 5-(3-((4-((7-((3-((2,6-Dimethylphenyl)amino)-1-methyl-1H-pyrazolo[3,4-d]pyrimidin-6-yl)amino)-3,4-dihydroisoquinolin-2 (1H)-yl)methyl)piperidin-1-yl)methyl)azetidin-1-yl)-2-(2,6-dioxopiperidin-3-yl)isoindoline-1,3-dione]",10 to 1000 nM
2,"Cc1cccc(C)c1Nc1nn(C)c2nc(Nc3ccc4c(c3)CN(CC3CN(C(=O)CNc5ccc6c(c5)C(=O)N(C5CCC(=O)NC5=O)C6=O)C3)CC4)ncc12 (centres unmarked) [Compound 51, 5-((2-(3-((7-((3-((2,6-Dimethylphenyl)amino)-1-methyl-1H-pyrazolo[3,4-d]pyrimidin-6-yl)amino)-3,4-dihydroisoquinolin-2 (1H)-yl)methyl)azetidin-1-yl)-2-oxoethyl)amino)-2-(2,6-dioxopiperidin-3-yl)isoindoline-1,3-dione]",0.1 to 10 nM
3,"Cc1cccc(C)c1Nc1nn(C)c2nc(Nc3ccc4c(c3)CN(CC3CCN(C(=O)CNc5ccc6nnn(C7CCC(=O)NC7=O)c(=O)c6c5)CC3)CC4)ncc12 (centres unmarked) [Compound 52, 3-(6-((2-(4-((7-((3-((2,6-Dimethylphenyl)amino)-1-methyl-1H-pyrazolo[3,4-d]pyrimidin-6-yl)amino)-3,4-dihydroisoquinolin-2 (1H)-yl)methyl)piperidin-1-yl)-2-oxoethyl)amino)-4-oxobenzo[d][1,2,3]triazin-3 (4H)-yl)piperidin-2,6-one]",0.1 to 10 nM
4,"Cc1cccc(C)c1Nc1nn(C)c2nc(Nc3ccc4c(c3)CN(CC3CCN(C(=O)CCc5cccc6c5CN(C5CCC(=O)NC5=O)C6=O)CC3)CC4)ncc12 (centres unmarked) [Compound 64, 3-(4-(3-(4-((7-((3-((2,6-Dimethylphenyl)amino)-1-methyl-1H-pyrazolo[3,4-d]pyrimidin-6-yl)amino)-3,4-dihydroisoquinolin-2 (1H)-yl)methyl)piperidin-1-yl)-3-oxopropyl)-1-oxoisoindolin-2-yl)piperidin-2,6-one]",0.1 to 10 nM
5,Cc1cccc(C)c1Nc1nn(C)c2nc(Nc3ccc4c(c3)CN(C(=O)C3CCN(c5ccc6c(c5)C(=O)N(C5CCC(=O)NC5=O)C6=O)C3)CC4)ncc12 (centres unmarked) [Compound 66],10 to 1000 nM
6,"Cc1cccc(C)c1Nc1nn(C)c2nc(Nc3ccc4c(c3)CN(C(=O)C3CCN(C(=O)C5CCN(c6ccc7c(c6)C(=O)N(C6CCC(=O)NC6=O)C7=O)CC5)C3)CC4)ncc12 (centres unmarked) [Compound 67, 5-(4-(3-(7-((3-((2,6-Dimethylphenyl)amino)-1-methyl-1H-pyrazolo[3,4-d]pyrimidin-6-yl)amino)-1,2,3,4-tetrahydroisoquinoline-2-carbonyl)pyrrolidine-1-carbonyl)piperidin-1-yl)-2-(2,6-dioxopiperidin-3-yl)isoindoline-1,3-dione]",10 to 1000 nM
7,"Cc1cccc(C)c1Nc1nn(C)c2nc(Nc3ccc4c(c3)CN(C(=O)C3CCN(C(=O)CNc5ccc6c(=O)n(C7CCC(=O)NC7=O)nnc6c5)CC3)CC4)ncc12 (centres unmarked) [Compound 68, 3-(7-((2-(4-(7-((3-((2,6-Dimethylphenyl)amino)-1-methyl-1H-pyrazolo[3,4-d]pyrimidin-6-yl)amino)-1,2,3,4-tetrahydroisoquinoline-2-carbonyl)piperidin-1-yl)-2-oxoethyl)amino)-4-oxobenzo[d][1,2,3]triazin-3 (4H)-yl)piperidin-2,6-one]",10 to 1000 nM
8,"Cc1cccc(C)c1Nc1nn(C)c2nc(Nc3ccc4c(c3)CN(C(=O)C3CCN(c5ccc6c(=O)n(C7CCC(=O)NC7=O)nnc6c5)CC3)CC4)ncc12 (centres unmarked) [Compound 69, 3-(7-(4-(7-((3-((2,6-Dimethylphenyl)amino)-1-methyl-1H-pyrazolo[3,4-d]pyrimidin-6-yl)amino)-1,2,3,4-tetrahydroisoquinoline-2-carbonyl)piperidin-1-yl)-4-oxobenzo[d][1,2,3]triazin-3 (4H)-yl)piperidin-2,6-one]",10 to 1000 nM
